Data from patent publication US20230286970A1, “NOVEL OXADIAZOLE-BASED SELECTIVE HDAC6 INHIBITORS” (ITALFARMACO S.P.A., priority 2020, published 2023).

Assays:
recombinant human HDAC1 = recombinant human HDAC1 (Homo sapiens (Human), UniProt Q13547); assay: Enzymatic screening, HDAC1 inhibition (fluorogenic FdL_G substrate); format: biochemical
Procedure, shortened: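 Recombinant human HDAC1 inhibition was measured fluorometrically using the FLUOR DE LYS-Green (FdL_G) substrate. Compounds at 8 doses (1% DMSO final) in Tris-HCl pH 8 buffer with NaCl, Tween-20 and glycerol were preincubated in triplicate with enzyme and 1 mg/mL BSA, then given substrate. Developer I plus 2 μM TSA was added, and fluorescence read after 25 minutes in the dark.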

recombinant human HDAC6 = recombinant human HDAC6 (Homo sapiens (Human), UniProt Q9UBN7); assay: Enzymatic screening, HDAC6 inhibition (fluorogenic FdL_G substrate); format: biochemical
recombinant human HDAC6, sequence (Q9UBN7 whole entry): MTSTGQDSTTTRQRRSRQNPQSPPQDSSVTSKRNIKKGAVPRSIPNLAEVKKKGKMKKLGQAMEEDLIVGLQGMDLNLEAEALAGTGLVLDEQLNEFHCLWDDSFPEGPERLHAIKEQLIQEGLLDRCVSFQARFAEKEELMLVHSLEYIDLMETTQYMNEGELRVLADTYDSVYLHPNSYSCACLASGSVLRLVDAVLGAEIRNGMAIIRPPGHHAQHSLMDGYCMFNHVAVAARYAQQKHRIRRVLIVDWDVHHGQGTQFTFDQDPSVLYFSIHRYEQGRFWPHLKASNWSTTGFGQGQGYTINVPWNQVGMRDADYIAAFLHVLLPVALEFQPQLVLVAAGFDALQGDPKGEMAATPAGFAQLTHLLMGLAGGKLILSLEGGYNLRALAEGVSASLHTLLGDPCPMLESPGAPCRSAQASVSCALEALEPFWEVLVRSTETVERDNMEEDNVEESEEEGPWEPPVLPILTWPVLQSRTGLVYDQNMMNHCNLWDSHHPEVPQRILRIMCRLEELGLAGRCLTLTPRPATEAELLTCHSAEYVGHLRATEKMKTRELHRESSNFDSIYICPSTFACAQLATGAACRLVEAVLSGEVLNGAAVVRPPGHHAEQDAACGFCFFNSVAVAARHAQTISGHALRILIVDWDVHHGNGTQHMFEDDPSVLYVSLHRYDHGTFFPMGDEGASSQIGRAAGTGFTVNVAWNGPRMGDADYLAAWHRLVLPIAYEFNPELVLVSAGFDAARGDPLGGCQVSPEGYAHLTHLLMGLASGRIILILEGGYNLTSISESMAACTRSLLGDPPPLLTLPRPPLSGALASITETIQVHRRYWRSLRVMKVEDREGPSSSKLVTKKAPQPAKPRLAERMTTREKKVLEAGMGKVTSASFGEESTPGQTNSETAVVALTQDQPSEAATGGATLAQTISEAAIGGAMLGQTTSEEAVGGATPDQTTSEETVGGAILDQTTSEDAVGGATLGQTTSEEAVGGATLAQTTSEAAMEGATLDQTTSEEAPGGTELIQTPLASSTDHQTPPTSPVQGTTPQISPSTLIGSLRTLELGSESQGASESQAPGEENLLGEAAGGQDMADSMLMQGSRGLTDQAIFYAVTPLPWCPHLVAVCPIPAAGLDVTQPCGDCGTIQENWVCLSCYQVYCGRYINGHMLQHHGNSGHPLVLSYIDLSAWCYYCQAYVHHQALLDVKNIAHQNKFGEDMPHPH
Procedure, shortened: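 Enzyme was preincubated with compound (8 doses, triplicate, 1% DMSO) in 25 mM Tris-HCl pH 8, 130 mM NaCl, 0.05% Tween-20, 10% glycerol, with BSA. A FLUOR DE LYS-Green substrate was then added, and fluorescence was read after developer plus 2 μM TSA.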

recombinant human HDAC1, sequence (Q13547 whole entry): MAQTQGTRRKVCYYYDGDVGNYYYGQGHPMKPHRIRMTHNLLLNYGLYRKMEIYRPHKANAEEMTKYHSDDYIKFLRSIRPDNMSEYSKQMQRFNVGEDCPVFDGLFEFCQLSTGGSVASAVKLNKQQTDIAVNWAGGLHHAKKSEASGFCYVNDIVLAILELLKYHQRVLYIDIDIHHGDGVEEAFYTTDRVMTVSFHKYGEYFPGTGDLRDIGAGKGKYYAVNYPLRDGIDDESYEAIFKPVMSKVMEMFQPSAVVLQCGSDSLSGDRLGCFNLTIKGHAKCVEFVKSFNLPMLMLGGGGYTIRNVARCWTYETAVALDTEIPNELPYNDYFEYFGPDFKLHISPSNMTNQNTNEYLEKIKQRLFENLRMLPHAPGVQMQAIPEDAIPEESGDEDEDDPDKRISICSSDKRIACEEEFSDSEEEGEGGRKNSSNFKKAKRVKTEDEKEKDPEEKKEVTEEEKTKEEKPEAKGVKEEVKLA

For FC(F)c1nnc(-c2ccc(Cc3nnc(-c4ccccc4)s3)cc2)o1 [Compd. 238, 2-(difluoromethyl)-5-(4-((5-phenyl-1,3,4-thiadiazol-2-yl)methyl)phenyl)-1,3,4-oxadiazole], the IC50 (recombinant human HDAC1) was over 200000 nM and the IC50 (recombinant human HDAC6) was 211 nM.
CC(c1ccc(-c2nnc(C(F)F)o2)cn1)n1cc(-c2cccc(NC(=O)N3CCOCC3)c2)nn1 (stereo not shown) [compound 66, N-(3-(1-(1-(5-(5-(difluoromethyl)-1,3,4-oxadiazol-2-yl)pyridin-2-yl)ethyl)-1H-1,2,3-triazol-4-yl)phenyl)morpholine-4-carboxamide] showed an IC50 (recombinant human HDAC1) of over 200000 nM and an IC50 (recombinant human HDAC6) of 28 nM.
Work on Nc1ccc(-c2cn(Cc3ccc(-c4nnc(C(F)F)o4)cc3F)nn2)cn1 [compound 48, 5-(1-(4-(5-(difluoromethyl)-1,3,4-oxadiazol-2-yl)-2-fluorobenzyl)-1H-1,2,3-triazol-4-yl)pyridin-2-amine] yielded an IC50 (recombinant human HDAC1) of over 30000 nM and an IC50 (recombinant human HDAC6) of 21 nM.
Nc1ccc(-c2nc(Cc3c(F)cc(-c4nnc(C(F)F)o4)cc3F)no2)cn1 [compound 141, 5-(3-(4-(5-(difluoromethyl)-1,3,4-oxadiazol-2-yl)-2,6-difluorobenzyl)-1,2,4-oxadiazol-5-yl)pyridin-2-amine] gave an IC50 (recombinant human HDAC1) of over 200000 nM and an IC50 (recombinant human HDAC6) of 56 nM.
Compound NC(=O)c1cccc(-c2nnn(Cc3c(F)cc(-c4nnc(C(F)F)o4)cc3F)n2)c1 [compound 54, 3-(2-(4-(5-(difluoromethyl)-1,3,4-oxadiazol-2-yl)-2,6-difluorobenzyl)-2H-tetrazol-5-yl)benzamide] has an IC50 (recombinant human HDAC1) of over 200000 nM and an IC50 (recombinant human HDAC6) of 23 nM.
Nc1ccc(-c2noc(Cc3ccc(-c4nnc(C(F)F)o4)cc3)n2)cc1 [compound 375, 4-[5-[[4-[5-(difluoromethyl)-1,3,4-oxadiazol-2-yl]phenyl]methyl]-1,2,4-oxadiazol-3-yl]aniline] gave an IC50 (recombinant human HDAC1) of over 1e+06 nM and an IC50 (recombinant human HDAC6) of 88 nM.
In the case of Cn1c(=N)n(C)c2cc(-c3cn(Cc4ccc(-c5nnc(C(F)F)o5)cc4)nn3)ccc21 [compound 162, 5-(1-(4-(5-(difluoromethyl)-1,3,4-oxadiazol-2-yl)benzyl)-1H-1,2,3-triazol-4-yl)-1,3-dimethyl-1,3-dihydro-2H-benzo[d]imidazol-2-imine], the IC50 (recombinant human HDAC1) is reported as 45100 nM and the IC50 (recombinant human HDAC6) is reported as 76 nM.
FC(F)c1nnc(-c2ccc(Cn3nnc(-c4ccco4)n3)cc2)o1 [compound 220, 2-(difluoromethyl)-5-(4-((5-(furan-2-yl)-2H-tetrazol-2-yl)methyl)phenyl)-1,3,4-oxadiazole] showed an IC50 (recombinant human HDAC1) of over 200000 nM and an IC50 (recombinant human HDAC6) of 157 nM.
Compound CC(C)(C)OC(=O)N1CCc2[nH]c(-c3cccc(-c4nnn(Cc5ccc(-c6nnc(C(F)F)o6)cc5)n4)c3)nc2C1 [compound 272, tert-butyl 2-(3-(2-(4-(5-(difluoromethyl)-1,3,4-oxadiazol-2-yl)benzyl)-2H-tetrazol-5-yl)phenyl)-1,4,6,7-tetrahydro-5H-imidazo[4,5-c]pyridine-5-carboxylate] has an IC50 (recombinant human HDAC1) of over 200000 nM and an IC50 (recombinant human HDAC6) of 407 nM.
Cn1c(N)nc2cc(-c3nnn(Cc4ncc(-c5nnc(C(F)F)o5)cn4)n3)ccc21 [compound 252, 5-(2-((5-(5-(difluoromethyl)-1,3,4-oxadiazol-2-yl)pyrimidin-2-yl)methyl)-2H-tetrazol-5-yl)-1-methyl-1H-benzo[d]imidazol-2-amine] showed an IC50 (recombinant human HDAC1) of over 200000 nM and an IC50 (recombinant human HDAC6) of 27 nM.
With Nc1ccc(-c2cn([C@@H](CO)c3ccc(-c4nnc(C(F)F)o4)cc3)nn2)cn1 [compound 314, (2R)-2-[4-(6-aminopyridin-3-yl)triazol-1-yl]-2-[4-[5-(difluoromethyl)-1,3,4-oxadiazol-2-yl]phenyl]ethanol] the IC50 (recombinant human HDAC1) was over 1e+06 nM and the IC50 (recombinant human HDAC6) was 22 nM.
In the case of Cn1c(Sc2ccc(-c3nnc(C(F)F)o3)cc2)nnc1-c1ccc(N)nc1 [compound 285, 5-(5-((4-(5-(difluoromethyl)-1,3,4-oxadiazol-2-yl)phenyl)thio)-4-methyl-4H-1,2,4-triazol-3-yl)pyridin-2-amine], the IC50 (recombinant human HDAC1) is reported as over 200000 nM and the IC50 (recombinant human HDAC6) is reported as 491 nM.
Compound O=C(Nc1cccc(-c2cn(Cc3ccc(-c4nnc(C(F)F)o4)c(F)c3F)nn2)c1)N1CCOCC1 [compound 338, N-[3-[1-[[4-[5-(difluoromethyl)-1,3,4-oxadiazol-2-yl]-2,3-difluorophenyl]methyl]triazol-4-yl]phenyl]morpholine-4-carboxamide] has an IC50 (recombinant human HDAC1) of over 1e+06 nM and an IC50 (recombinant human HDAC6) of 101 nM.
Compound O=C1NCc2ccc(-c3cn(Cc4ccc(-c5nnc(C(F)F)o5)cn4)cn3)cc21 [Compd. 292, 6-(1-((5-(5-(difluoromethyl)-1,3,4-oxadiazol-2-yl)pyridin-2-yl)methyl)-1H-imidazol-4-yl)isoindolin-1-one] has an IC50 (recombinant human HDAC1) of over 200000 nM and an IC50 (recombinant human HDAC6) of 30 nM.
O=C(Nc1cccc(-c2cn(Cc3cc(F)c(-c4nnc(C(F)F)o4)cc3F)nn2)c1)N1CCOCC1 [compound 363, N-[3-[1-[[4-[5-(difluoromethyl)-1,3,4-oxadiazol-2-yl]-2,5-difluorophenyl]methyl]triazol-4-yl]phenyl]morpholine-4-carboxamide] showed an IC50 (recombinant human HDAC1) of over 1e+06 nM and an IC50 (recombinant human HDAC6) of 29 nM.
Compound COc1ncc(NCc2ccc(-c3cn(Cc4c(F)cc(-c5nnc(C(F)F)o5)cc4F)nn3)cc2)cc1C(N)=O [Compd. 154, 5-((4-(1-(4-(5-(difluoromethyl)-1,3,4-oxadiazol-2-yl)-2,6-difluorobenzyl)-1H-1,2,3-triazol-4-yl)benzyl)amino)-2-methoxynicotinamide] has an IC50 (recombinant human HDAC1) of over 200000 nM and an IC50 (recombinant human HDAC6) of 67 nM.
O=C(Nc1cc(-c2nnn(Cc3ccc(-c4nnc(C(F)F)o4)cc3)n2)ccc1Sc1ccccc1)N1CCOCC1 [compound 258, N-(5-(2-(4-(5-(difluoromethyl)-1,3,4-oxadiazol-2-yl)benzyl)-2H-tetrazol-5-yl)-2-(phenylthio)phenyl)morpholine-4-carboxamide] showed an IC50 (recombinant human HDAC1) of over 200000 nM and an IC50 (recombinant human HDAC6) of 410 nM.
Compound Cn1c(N)nc2cc(-c3cnn(Cc4ccc(-c5nnc(C(F)F)o5)cc4)c3)ccc21 [compound 321, 5-[1-[[4-[5-(difluoromethyl)-1,3,4-oxadiazol-2-yl]phenyl]methyl]pyrazol-4-yl]-1-methylbenzimidazol-2-amine] has an IC50 (recombinant human HDAC1) of over 1e+06 nM and an IC50 (recombinant human HDAC6) of 98 nM.
Work on CCNc1cccc(-c2cn(Cc3c(F)cc(-c4nnc(C(F)F)o4)cc3F)nn2)c1 [compound 114, 3-(1-(4-(5-(difluoromethyl)-1,3,4-oxadiazol-2-yl)-2,6-difluorobenzyl)-1H-1,2,3-triazol-4-yl)-N-ethylaniline] yielded an IC50 (recombinant human HDAC1) of over 200000 nM and an IC50 (recombinant human HDAC6) of 43 nM.
O=C1Nc2cc(-c3cn(Cc4ccc(-c5nnc(C(F)F)o5)cc4)nn3)ccc2C12CCNCC2 [compound 161, 6-(1-(4-(5-(difluoromethyl)-1,3,4-oxadiazol-2-yl)benzyl)-1H-1,2,3-triazol-4-yl)spiro[indoline-3,4′-piperidin]-2-one] gave an IC50 (recombinant human HDAC1) of over 200000 nM and an IC50 (recombinant human HDAC6) of 75 nM.
In the case of Fc1cc(-c2nnc(C(F)F)o2)ccc1Cc1nc(-c2ccc(NC3=NCCN3)cc2)no1 [compound 420, N-(4-(5-(4-(5-(difluoromethyl)-1,3,4-oxadiazol-2-yl)-2-fluorobenzyl)-1,2,4-oxadiazol-3-yl)phenyl)-4,5-dihydro-1H-imidazol-2-amine], the IC50 (recombinant human HDAC1) is reported as over 1e+06 nM and the IC50 (recombinant human HDAC6) is reported as 12 nM.
In the case of Nc1nc2ccc(-c3cc(Cc4ccc(-c5nnc(C(F)F)o5)cc4)on3)cc2s1 [compd. 366, 6-[5-[[4-[5-(difluoromethyl)-1,3,4-oxadiazol-2-yl]phenyl]methyl]-1,2-oxazol-3-yl]-1,3-benzothiazol-2-amine], the IC50 (recombinant human HDAC1) is reported as over 1e+06 nM and the IC50 (recombinant human HDAC6) is reported as 297 nM.
O=C1NCc2ccc(-c3nnnn3Cc3ncc(-c4nnc(C(F)F)o4)cn3)cc21 [compound 298, 6-(1-((5-(5-(difluoromethyl)-1,3,4-oxadiazol-2-yl)pyrimidin-2-yl)methyl)-1H-tetrazol-5-yl)isoindolin-1-one] showed an IC50 (recombinant human HDAC1) of over 200000 nM and an IC50 (recombinant human HDAC6) of 151 nM.
FCc1nnc(-c2ccc(Cc3nc(-c4ccc(NC5=NCCN5)cc4)no3)cc2)o1 [compound 380] gave an IC50 (recombinant human HDAC1) of over 1e+06 nM and an IC50 (recombinant human HDAC6) of 19 nM.
In the case of NCc1ccc(-c2cn(Cc3ccc(-c4nnc(C(F)F)o4)cc3)nn2)cn1 [compound 155, (5-(1-(4-(5-(difluoromethyl)-1,3,4-oxadiazol-2-yl)benzyl)-1H-1,2,3-triazol-4-yl)pyridin-2-yl)methanamine], the IC50 (recombinant human HDAC1) is reported as over 200000 nM and the IC50 (recombinant human HDAC6) is reported as 69 nM.
In the case of CC[C@H](c1ccc(-c2nnc(C(F)F)o2)cc1)n1cc(-c2cccc(NC(=O)N3CCOCC3)c2)nn1 (stereo in doubt) [compound 184, N-(3-(1-(1-(4-(5-(difluoromethyl)-1,3,4-oxadiazol-2-yl)phenyl)propyl)-1H-1,2,3-triazol-4-yl)phenyl)morpholine-4-carboxamide], the IC50 (recombinant human HDAC1) is reported as over 200000 nM and the IC50 (recombinant human HDAC6) is reported as 96 nM.
NCc1ccc(-c2nnn(Cc3ccc(-c4nnc(C(F)F)o4)cc3)n2)cc1 [compound 43, (4-(2-(4-(5-(difluoromethyl)-1,3,4-oxadiazol-2-yl)benzyl)-2H-tetrazol-5-yl)phenyl)methanamine] gave an IC50 (recombinant human HDAC1) of 74900 nM and an IC50 (recombinant human HDAC6) of 20 nM.
In the case of CN1CCC(NC(=O)c2ccc(-c3nnn(Cc4ccc(-c5nnc(C(F)F)o5)cc4)n3)cc2)CC1 [compound 232, 4-(2-(4-(5-(difluoromethyl)-1,3,4-oxadiazol-2-yl)benzyl)-2H-tetrazol-5-yl)-N-(1-methylpiperidin-4-yl)benzamide], the IC50 (recombinant human HDAC1) is reported as over 200000 nM and the IC50 (recombinant human HDAC6) is reported as 198 nM.
Nc1cc(-c2nnn(Cc3c(F)cc(-c4nnc(C(F)F)o4)cc3F)n2)ccc1OC(=O)N1CCOCC1 [compound 160, 2-amino-4-(2-(4-(5-(difluoromethyl)-1,3,4-oxadiazol-2-yl)-2,6-difluorobenzyl)-2H-tetrazol-5-yl)phenyl morpholine-4-carboxylate] was tested, and the IC50 (recombinant human HDAC1) was over 200000 nM and the IC50 (recombinant human HDAC6) was 74 nM.
